Experimental data reported in US11109593B2, “Isoxazolin-5-one derivative and herbicide containing same as active ingredient” (HOKKO CHEMICAL INDUSTRY CO., LTD., priority 2017, dated 2021).

Each compound was assayed on Echinochloa crus-galli (assay: Test Example 1: herbicidal effect test by treatment of rice paddy soil (immediately after seeding)). Settings: 120 g/10a active ingredient, dry weight vs untreated area, 14 days after treatment.
Format: in vivo
Method in brief: (§1)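 Pre-emergence paddy water application, 120 g a.i./10 ares, applied immediately post-seeding into ~3 cm flood; glasshouse; duplicate pots; dry weight at 14 d → % inhibition = (1 − treated/untreated) × 100.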
With `CCCCC(CC)Cn1oc(=O)c(Cc2ccccc2N(S(=O)(=O)C(F)(F)F)S(=O)(=O)C(F)(F)F)c1C` (stereo not drawn) [Compound 1-980] the “Herbicidal rate (%) Echinochloa crus-galli” value was 100%.
In the case of `CCC(CC)n1oc(=O)c(Cc2ccccc2NS(=O)(=O)C(F)(F)F)c1C` [Compound 1-103], the “Herbicidal rate (%) Echinochloa crus-galli” value was 100%.
`CCC(C)Cn1oc(=O)c(Cc2ccccc2N(C(=O)OCc2ccccc2)S(=O)(=O)C(F)(F)F)c1C` (single isomer, unassigned) [1-789 (TLC bottom)] was tested, and the “Herbicidal rate (%) Echinochloa crus-galli” value was 100%.

These compounds were tested on Scirpus juncoides in the same assay as above. Settings: 120 g/10a active ingredient, dry weight vs untreated area, 14 days after treatment.
Format: in vivo
Method in brief: as §1
For `CCCCC(CC)Cn1oc(=O)c(Cc2ccccc2N(S(=O)(=O)C(F)(F)F)S(=O)(=O)C(F)(F)F)c1C` (stereo not drawn) [Compound 1-980], the “Herbicidal rate (%) Scirpus juncoides” value was 90%.
`CCC(CC)n1oc(=O)c(Cc2ccccc2NS(=O)(=O)C(F)(F)F)c1C` [Compound 1-103] was tested, and the “Herbicidal rate (%) Scirpus juncoides” value was 90%.
With `CCC(C)Cn1oc(=O)c(Cc2ccccc2N(C(=O)OCc2ccccc2)S(=O)(=O)C(F)(F)F)c1C` (single isomer, unassigned) [1-789 (TLC bottom)] the “Herbicidal rate (%) Scirpus juncoides” value was 90%.

What follows are compounds tested on broad leaf weeds (Lindernia pyxidaria and Monochoria vaginalis) in the same assay as above. Settings: Lindernia pyxidaria, 120 g/10a active ingredient, dry weight vs untreated area, 14 days after treatment.
Format: in vivo
Method in brief: as §1
With `CCCCC(CC)Cn1oc(=O)c(Cc2ccccc2N(S(=O)(=O)C(F)(F)F)S(=O)(=O)C(F)(F)F)c1C` (stereo not drawn) [Compound 1-980] the “Herbicidal rate (%) Lindernia pyxidaria” value was 100%.
For `CCC(CC)n1oc(=O)c(Cc2ccccc2NS(=O)(=O)C(F)(F)F)c1C` [Compound 1-103], the “Herbicidal rate (%) Lindernia pyxidaria” value was 80%.
With `CCC(C)Cn1oc(=O)c(Cc2ccccc2N(C(=O)OCc2ccccc2)S(=O)(=O)C(F)(F)F)c1C` (single isomer, unassigned) [1-789 (TLC bottom)] the “Herbicidal rate (%) Lindernia pyxidaria” value was 90%.

Same assay, conditions: Monochoria vaginalis, 120 g/10a active ingredient, dry weight vs untreated area, 14 days after treatment
For `CCCCC(CC)Cn1oc(=O)c(Cc2ccccc2N(S(=O)(=O)C(F)(F)F)S(=O)(=O)C(F)(F)F)c1C` (stereo not drawn) [Compound 1-980], the “Herbicidal rate (%) Monochoria vaginalis” value was 80%.
In the case of `CCC(CC)n1oc(=O)c(Cc2ccccc2NS(=O)(=O)C(F)(F)F)c1C` [Compound 1-103], the “Herbicidal rate (%) Monochoria vaginalis” value was 100%.
`CCC(C)Cn1oc(=O)c(Cc2ccccc2N(C(=O)OCc2ccccc2)S(=O)(=O)C(F)(F)F)c1C` (single isomer, unassigned) [1-789 (TLC bottom)] was tested, and the “Herbicidal rate (%) Monochoria vaginalis” value was 90%.

The compounds below were run on Echinochloa crus-galli (assay: Test Example 2: herbicidal effect test by treatment during growing period in paddy rice cultivation (seven days after seeding)). Settings: 120 g/10a active ingredient, assessed 14 days after treatment, dry weight vs untreated area.
Format: in vivo
Method in brief: (§2)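 Herbicidal rate = (1 − treated/untreated mean dry weight) × 100, scored 14 days after application, two replicates per rate. Treatment: diluted emulsion dropped onto paddy water seven days after sowing, 120 g active ingredient per 10 ares, in a glass greenhouse.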
With `CCCCC(CC)Cn1oc(=O)c(Cc2ccccc2N(S(=O)(=O)C(F)(F)F)S(=O)(=O)C(F)(F)F)c1C` (stereo not drawn) [Compound 1-980] the “Herbicidal rate (%) Echinochloa crus-galli” value was 100%.
For `CCC(CC)n1oc(=O)c(Cc2ccccc2NS(=O)(=O)C(F)(F)F)c1C` [Compound 1-103], the “Herbicidal rate (%) Echinochloa crus-galli” value was 90%.
For `CCC(C)Cn1oc(=O)c(Cc2ccccc2N(C(=O)OCc2ccccc2)S(=O)(=O)C(F)(F)F)c1C` (single isomer, unassigned) [1-789 (TLC bottom)], the “Herbicidal rate (%) Echinochloa crus-galli” value was 100%.

These compounds were tested on Scirpus juncoides in the same assay as above. Settings: 120 g/10a active ingredient, assessed 14 days after treatment, dry weight vs untreated area.
Format: in vivo
Method in brief: as §2
With `CCCCC(CC)Cn1oc(=O)c(Cc2ccccc2N(S(=O)(=O)C(F)(F)F)S(=O)(=O)C(F)(F)F)c1C` (stereo not drawn) [Compound 1-980] the “Herbicidal rate (%) Scirpus juncoides” value was 80%.
For `CCC(CC)n1oc(=O)c(Cc2ccccc2NS(=O)(=O)C(F)(F)F)c1C` [Compound 1-103], the “Herbicidal rate (%) Scirpus juncoides” value was 80%.
In the case of `CCC(C)Cn1oc(=O)c(Cc2ccccc2N(C(=O)OCc2ccccc2)S(=O)(=O)C(F)(F)F)c1C` (single isomer, unassigned) [1-789 (TLC bottom)], the “Herbicidal rate (%) Scirpus juncoides” value was 90%.

Each compound was assayed on broad leaf weeds (Lindernia pyxidaria and Monochoria vaginalis) in the same assay as above. Settings: Lindernia pyxidaria, 120 g/10a active ingredient, assessed 14 days after treatment, dry weight vs untreated area.
Format: in vivo
Method in brief: as §2
For `CCCCC(CC)Cn1oc(=O)c(Cc2ccccc2N(S(=O)(=O)C(F)(F)F)S(=O)(=O)C(F)(F)F)c1C` (stereo not drawn) [Compound 1-980], the “Herbicidal rate (%) Lindernia pyxidaria” value was 80%.
`CCC(CC)n1oc(=O)c(Cc2ccccc2NS(=O)(=O)C(F)(F)F)c1C` [Compound 1-103] was tested, and the “Herbicidal rate (%) Lindernia pyxidaria” value was 60%.
`CCC(C)Cn1oc(=O)c(Cc2ccccc2N(C(=O)OCc2ccccc2)S(=O)(=O)C(F)(F)F)c1C` (single isomer, unassigned) [1-789 (TLC bottom)] was tested, and the “Herbicidal rate (%) Lindernia pyxidaria” value was 60%.

Same assay, conditions: Monochoria vaginalis, 120 g/10a active ingredient, assessed 14 days after treatment, dry weight vs untreated area
For `CCCCC(CC)Cn1oc(=O)c(Cc2ccccc2N(S(=O)(=O)C(F)(F)F)S(=O)(=O)C(F)(F)F)c1C` (stereo not drawn) [Compound 1-980], the “Herbicidal rate (%) Monochoria vaginalis” value was 80%.
With `CCC(CC)n1oc(=O)c(Cc2ccccc2NS(=O)(=O)C(F)(F)F)c1C` [Compound 1-103] the “Herbicidal rate (%) Monochoria vaginalis” value was 80%.
In the case of `CCC(C)Cn1oc(=O)c(Cc2ccccc2N(C(=O)OCc2ccccc2)S(=O)(=O)C(F)(F)F)c1C` (single isomer, unassigned) [1-789 (TLC bottom)], the “Herbicidal rate (%) Monochoria vaginalis” value was 90%.

Each compound was assayed on Amaranthus viridis (assay: Test Example 3: herbicidal effect test by treatment of dry field farming soil (one day after seeding)). Settings: 120 g/10a active ingredient, evaluated 14 days after treatment.
Format: in vivo
Method in brief: (§3)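 Seeds (20 each) mixed into top 1 cm of alluvium in pots, surface pressed. One day later, diluted emulsion sprayed onto soil, 100 L/10 a, 120 g a.i./10 a. Dry weight at 14 d vs untreated gave % herbicidal rate; n=2.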
`CCCCC(CC)Cn1oc(=O)c(Cc2ccccc2N(S(=O)(=O)C(F)(F)F)S(=O)(=O)C(F)(F)F)c1C` (stereo not drawn) [Compound 1-980] was tested, and the “herbicidal rate, Amaranthus viridis” value was 40%.
`CCC(CC)n1oc(=O)c(Cc2ccccc2NS(=O)(=O)C(F)(F)F)c1C` [Compound 1-103] was tested, and the “herbicidal rate, Amaranthus viridis” value was 100%.
`CCC(C)Cn1oc(=O)c(Cc2ccccc2N(C(=O)OCc2ccccc2)S(=O)(=O)C(F)(F)F)c1C` (single isomer, unassigned) [1-789 (TLC bottom)] was tested, and the “herbicidal rate, Amaranthus viridis” value was 70%.

The compounds below were run on Chenopodium album in the same assay as above. Settings: 120 g/10a active ingredient, evaluated 14 days after treatment.
Format: in vivo
Method in brief: as §3
`CCCCC(CC)Cn1oc(=O)c(Cc2ccccc2N(S(=O)(=O)C(F)(F)F)S(=O)(=O)C(F)(F)F)c1C` (stereo not drawn) [Compound 1-980] was tested, and the “herbicidal rate, Chenopodium album” value was 40%.
With `CCC(CC)n1oc(=O)c(Cc2ccccc2NS(=O)(=O)C(F)(F)F)c1C` [Compound 1-103] the “herbicidal rate, Chenopodium album” value was 100%.
With `CCC(C)Cn1oc(=O)c(Cc2ccccc2N(C(=O)OCc2ccccc2)S(=O)(=O)C(F)(F)F)c1C` (single isomer, unassigned) [1-789 (TLC bottom)] the “herbicidal rate, Chenopodium album” value was 80%.

The compounds below were run on Echinochloa crus-galli in the same assay as above. Settings: 120 g/10a active ingredient, evaluated 14 days after treatment.
Format: in vivo
Method in brief: as §3
In the case of `CCCCC(CC)Cn1oc(=O)c(Cc2ccccc2N(S(=O)(=O)C(F)(F)F)S(=O)(=O)C(F)(F)F)c1C` (stereo not drawn) [Compound 1-980], the “herbicidal rate, Echinochloa crus-galli” value was 40%.
With `CCC(CC)n1oc(=O)c(Cc2ccccc2NS(=O)(=O)C(F)(F)F)c1C` [Compound 1-103] the “herbicidal rate, Echinochloa crus-galli” value was 100%.
For `CCC(C)Cn1oc(=O)c(Cc2ccccc2N(C(=O)OCc2ccccc2)S(=O)(=O)C(F)(F)F)c1C` (single isomer, unassigned) [1-789 (TLC bottom)], the “herbicidal rate, Echinochloa crus-galli” value was 90%.

These compounds were tested on southern crabgrass in the same assay as above. Settings: 120 g/10a active ingredient, evaluated 14 days after treatment.
Format: in vivo
Method in brief: as §3
In the case of `CCCCC(CC)Cn1oc(=O)c(Cc2ccccc2N(S(=O)(=O)C(F)(F)F)S(=O)(=O)C(F)(F)F)c1C` (stereo not drawn) [Compound 1-980], the “herbicidal rate, southern crabgrass” value was 60%.
In the case of `CCC(CC)n1oc(=O)c(Cc2ccccc2NS(=O)(=O)C(F)(F)F)c1C` [Compound 1-103], the “herbicidal rate, southern crabgrass” value was 100%.
For `CCC(C)Cn1oc(=O)c(Cc2ccccc2N(C(=O)OCc2ccccc2)S(=O)(=O)C(F)(F)F)c1C` (single isomer, unassigned) [1-789 (TLC bottom)], the “herbicidal rate, southern crabgrass” value was 60%.

These compounds were tested on Amaranthus viridis (assay: Test Example 4: herbicidal effect test by treatment of leave and stem in dry field farming (seven days after seeding)). Settings: 120 g/10a active ingredient; emulsion sprayed seven days after seeding; evaluated 14 days after treatment.
Format: in vivo
Method in brief: (§4)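 Twenty seeds per species were mixed into the top 1 cm of alluvial soil in 36 cm^2 pots; emulsions were sprayed seven days after seeding at 100 L per 10 ares (120 g active ingredient per 10 ares). Herbicidal rate (%) = {1 − treated/untreated mean dry weight} × 100, 14 days after treatment, duplicate.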
With `CCCCC(CC)Cn1oc(=O)c(Cc2ccccc2N(S(=O)(=O)C(F)(F)F)S(=O)(=O)C(F)(F)F)c1C` (stereo not drawn) [Compound 1-980] the “herbicidal effect (herbicidal rate), Amaranthus viridis” value (“herbicidal effect … Amaranthus viridis” below) was 40%.
For `CCC(CC)n1oc(=O)c(Cc2ccccc2NS(=O)(=O)C(F)(F)F)c1C` [Compound 1-103], the “herbicidal effect … Amaranthus viridis” value was 90%.
`CCC(C)Cn1oc(=O)c(Cc2ccccc2N(C(=O)OCc2ccccc2)S(=O)(=O)C(F)(F)F)c1C` (single isomer, unassigned) [1-789 (TLC bottom)] was tested, and the “herbicidal effect … Amaranthus viridis” value was 60%.

What follows are compounds tested on Chenopodium album in the same assay as above. Settings: 120 g/10a active ingredient; emulsion sprayed seven days after seeding; evaluated 14 days after treatment.
Format: in vivo
Method in brief: as §4
`CCCCC(CC)Cn1oc(=O)c(Cc2ccccc2N(S(=O)(=O)C(F)(F)F)S(=O)(=O)C(F)(F)F)c1C` (stereo not drawn) [Compound 1-980] was tested, and the “herbicidal effect (herbicidal rate), Chenopodium album” value (“herbicidal effect … Chenopodium album” below) was 40%.
In the case of `CCC(CC)n1oc(=O)c(Cc2ccccc2NS(=O)(=O)C(F)(F)F)c1C` [Compound 1-103], the “herbicidal effect … Chenopodium album” value was 40%.
`CCC(C)Cn1oc(=O)c(Cc2ccccc2N(C(=O)OCc2ccccc2)S(=O)(=O)C(F)(F)F)c1C` (single isomer, unassigned) [1-789 (TLC bottom)] was tested, and the “herbicidal effect … Chenopodium album” value was 40%.

What follows are compounds tested on Echinochloa crus-galli in the same assay as above. Settings: 120 g/10a active ingredient; emulsion sprayed seven days after seeding; evaluated 14 days after treatment.
Format: in vivo
Method in brief: as §4
For `CCCCC(CC)Cn1oc(=O)c(Cc2ccccc2N(S(=O)(=O)C(F)(F)F)S(=O)(=O)C(F)(F)F)c1C` (stereo not drawn) [Compound 1-980], the “herbicidal effect (herbicidal rate), Echinochloa crus-galli” value was 60%.
In the case of `CCC(CC)n1oc(=O)c(Cc2ccccc2NS(=O)(=O)C(F)(F)F)c1C` [Compound 1-103], the “herbicidal effect (herbicidal rate), Echinochloa crus-galli” value was 90%.
`CCC(C)Cn1oc(=O)c(Cc2ccccc2N(C(=O)OCc2ccccc2)S(=O)(=O)C(F)(F)F)c1C` (single isomer, unassigned) [1-789 (TLC bottom)] was tested, and the “herbicidal effect (herbicidal rate), Echinochloa crus-galli” value was 50%.

What follows are compounds tested on southern crabgrass in the same assay as above. Settings: 120 g/10a active ingredient; emulsion sprayed seven days after seeding; evaluated 14 days after treatment.
Format: in vivo
Method in brief: as §4
In the case of `CCCCC(CC)Cn1oc(=O)c(Cc2ccccc2N(S(=O)(=O)C(F)(F)F)S(=O)(=O)C(F)(F)F)c1C` (stereo not drawn) [Compound 1-980], the “herbicidal effect (herbicidal rate), southern crabgrass” value (shortened to “herbicidal effect … southern crabgrass”) was 40%.
`CCC(CC)n1oc(=O)c(Cc2ccccc2NS(=O)(=O)C(F)(F)F)c1C` [Compound 1-103] was tested, and the “herbicidal effect … southern crabgrass” value was 90%.
For `CCC(C)Cn1oc(=O)c(Cc2ccccc2N(C(=O)OCc2ccccc2)S(=O)(=O)C(F)(F)F)c1C` (single isomer, unassigned) [1-789 (TLC bottom)], the “herbicidal effect … southern crabgrass” value was 50%.
